Laboratory results as given in US7507792B2, “MDA-7 proteins and methods of use thereof” (The Trustees of Columbia University In The City of New York, priority 1993, dated 2009).

Columns and labels:
[1] = test system: H0-1 human melanoma cell line; assay: 96-h growth suppression (cell number by Coulter Counter); type: cell-based; details: for Growth Suppression (reversible): H0-1 cells, degree of initial 96 hr growth suppression versus untreated control
Procedure: FIG. 1A-B Effect of continuous exposure to various growth and differentiation modulating agents on the 96-h growth of the human melanoma cell line, H0-1. Cells were seeded at 5×10^4/35-mm tissue culture plate and 24 h later the medium was changed with the indicated compounds. Cell numbers were determined by Coulter Counter after 96-h growth. Further details can be found in Materials and Methods.
The H0-1 cell line is a melanotic melanoma derived from a person and was used between passage 100 and 125 (6,8,13). H0-1 cells were kindly provided by Dr. Beppino C. Giovanella, Stehlin Foundation for Cancer Research, Houston, Tex. Cultures were grown at 37° C. in a 95% air 5% CO2-humidified incubator in Dulbecco's modified Eagle's medium (DMEM) supplemented with 10% fetal bovine serum (DMEM-10) (Hyclone, Logan, Utah). H0-1 cells were maintained in the logarithmic stage of growth by subculturing (1:5 or 1:10) prior to confluency approximately every 4 to 5 days. […] Total cell numbers were determined after days 4, 7, 14, and 21, using a ZM Coulter Counter, and viable cell numbers were determined by trypan blue dye exclusion (6). […] Increases in cell number (two or more population doublings) after removal of the inducing agent(s) was considered reversible growth suppression. […] Conditioned medium was collected from treated cultures, contaminating cells were removed by centrifugation at 1000 rpm/10 min., and conditioned medium was stored at 4° C. until assayed for gene modulatory activity. Control conditioned medium was obtained as experimental conditioned medium from cells receiving only a medium change 24 hours after plating in the absence of test compound(s) and growth for 72 hours in DMEM-10.

mda-6 (WAF1/CIP1/SDI1) = type: cell-based, human; details: HL-525, RA 1 μM; for time of treatment at which mda-6 expression is induced: TPA 3 nM, Vit D3 400 nM, 1 to 12 h test period
Procedure: HL-60 cells were originally provided by Dr. R. C. Gallo (National Cancer Institute, Bethesda, Md.) (Collins et al., 1978; Huberman & Callaham, 1979). HL-60 cells designated HL-525 were derived by cloning HL-60 cells after subculturing 102 times in the presence of increasing concentrations (up to 3 μM) of TPA at 5- to 8-day intervals (Homma et al., 1986; Mitchell et al., 1986). […] Prior to the experiments described in this study, the HL-525 cells were subcultured more than 20 times in the absence of TPA. Cells were grown in 100-mm tissue culture dishes in RPMI 1640 medium supplemented with 20% fetal bovine serum, penicillin (100 units/ml) and streptomycin (100 μg/ml) (Grand Island Biological Co., NY) at 37° C. in an atmosphere of 5% CO2 in air in a humidified incubator. The 1,25-(OH)2D3(Vit D3) and TPA were dissolved in a final concentration of 0.01% DMSO, and all-trans retinoic acid (RA) was dissolved in 0.1% DMSO in culture medium. […] Control cultures were treated with DMSO at a final concentration of 0.1% in culture medium. For experiments designed to test the effect of DMSO on HL-60 and HL-525 cells, DMSO was added to tissue culture medium at a final concentration of 1%. Stock solutions of CHX (10 mg/ml) were prepared in culture medium. CHX was added at a final concentration of 10 μg/ml. To examine a requirement for protein synthesis on mda-6 gene expression, HL-60 or HL-525 cells were seeded into 150 mm Petri dishes (5×10^5 cells/ml) in 30 ml of medium. CHX was added to a final concentration of 10 μg/ml 15 min prior to the addition of TPA to 3 nM. Cells were harvested at various times after addition of TPA for subsequent RNA isolation and analysis.
RNA was purified by centrifugation through a CsC1 cushion as described by Chirgwin et al. (1979). Ten μg of RNA was denatured with glyoxal/DMSO, electrophoresed on 1.0% agarose gels, transferred to nylon membranes, hybridized to a ^32P-labeled mda-6 probe (Jiang and Fisher, 1993) and then after stripping the membrane hybridized to a ^32P-labeled rat GAPDH probe (Fort et al., 1985), as described previously (Reddy et at., 1991; Su et al., 1991; Jiang et al., 1992). Following hybridization, the filters were washed and exposed for autoradiography (Reddy et al., 1991; Su et al., 1991; Jiang et al., 1992). mda-6 and GAPDH gene expression were also determined by reverse transcription-polymerase chain reaction (RT-PCR) as described (Adollahi et al. 1991; Lin et al., 1994). Total cytoplasmic RNA was treated with 0.5 units DNase (Boehringer-Mannheim Biochemicals)/μg RNA in 15% glycerol, 10 mM Tris, pH 7.5, 2.5 mM MgCl2, 0.1 mM EDTA, 80 mM KC1, 1 mM CaCl2 and 1 unit/ml RNasin (Promega) at 30° C. for 10 min. RNA was extracted with phenol-chloroform, precipitated with sodium acetate/ethanol and RNA pellets were resuspended in diethylpyrocarbonate-treated H2O. One μg of total RNA was reverse transcribed with 200 units of murine leukemia virus reverse transcriptase (Bethesda Research Laboratories) in 20 μl containing 1 mM deoxyribonucleotide triphosphates, 4 mM MgCl2, 10 mM Tris, pH 8.3, 50 mM KC1, 0.001% gelatin and 0.2 μg oligo-dT primer. Samples were diluted to 100 μl with buffer containing 0.2 mM deoxyribonucleotide triphosphates, 2 mM MgCl2, 10 mM Tris, pH 8.3, 50 mM KC1 and 0.001% gelatin. […]

Row | SMILES | Growth Suppression (reversible) ([1]; Table 1) | Growth Suppression (reversible) ([1]; Table 2) | inhibition of H0-1 growth ([1]; H0-1, 96 hours, FIG. 1 concentrations) | time of treatment at which mda-6 expression is detected (mda-6 (WAF1/CIP1/SDI1); extended treatment 12 h to 6 d) [days] | time of treatment at which mda-6 expression is induced (mda-6 (WAF1/CIP1/SDI1)) [h]
1 | C=C(C)[C@@]12O[C@@]3(c4ccccc4)O[C@@H]1[C@@H]1[C@@H]4O[C@]4(CO)[C@@H](O)[C@]4(O)C(=O)C(C)=C[C@H]4[C@@]1(O3)[C@H](C)[C@H]2OC(=O)/C=C/C=C/c1ccccc1 [MEZ, mezerein] | 1+ (1+ = ~30% reduction in growth in comparison with untreated control cultures) | 1+ (1+ = ~30% reduction in growth in comparison with untreated control cultures) |  |  | 
2 | CC1=C(/C=C/C(C)=C/C=C/C(C)=C/C(=O)O)C(C)(C)CCC1 [RA, trans-retinoic acid] | − (− = no significant change in growth (<10% reduction in growth in comparison with untreated control cultures)) | − (− = no significant change in growth (<10% reduction in growth in comparison with untreated control cultures)) | no inhibition of growth | 2 | > 12
3 | CCCCCCCCCCCCCC(=O)O[C@@H]1[C@@H](C)[C@@]2(O)[C@@H](C=C(CO)C[C@]3(O)C(=O)C(C)=C[C@@H]23)[C@@H]2C(C)(C)[C@]12OC(C)=O [TPA, 12-O-tetradecanoyl-phorbol-13-acetate] |  |  |  |  | 12
